Measured values taken from article PMC6792352, “Limited Chemical Structural Diversity Found to Modulate Thyroid Hormone Receptor in the Tox21 Chemical Library” (Environmental Health Perspectives, 2019).
Structures can show the parent of a compound that is named as a salt.

Experiment: in vitro
Details: rat, gh3-tre-luc cells, AC50 (uM) modified / 1000

Row | SMILES | CC50 at 24 h
1 | CSc1cnccn1 [Pyrazinyl methyl sulfide] | > 90 µM
2 | CC(C)CCCO [4-Methylpentan-1-ol] | > 90 µM
3 | O=S(=O)(O)CC(S)CS (stereo not drawn) [Sodium 2,3-dimercaptopropanesulfonate hydrate] | > 50 µM
4 | O=[N+]([O-])c1cc(C2CCCCC2)c(O)c([N+](=O)[O-])c1 [Dinex] | 8.98 µM
5 | N#Cc1sc2c(=O)c3ccccc3c(=O)c=2sc1C#N [Dithianon] | 29.4 µM
6 | CCCCCCCCCCCCCC[n+]1ccccc1 [Tetradecylpyridinium bromide] | 6.51 µM
7 | Cn1cc(NC(=O)c2cc(NC(=O)c3cc(NC=O)cn3C)cn2C)cc1C(=O)NCCC(=N)N [Stallimycin] | > 50 µM
8 | CC(C)(O)C#CC(C)(C)O [2,5-Dimethyl-3-hexyne-2,5-diol] | > 90 µM
9 | Cc1ccc(C(=O)c2cc(O)c(O)c([N+](=O)[O-])c2)cc1 [Tolcapone] | 72.4 µM
10 | C[C@@H](NCCCc1cccc(C(F)(F)F)c1)c1cccc2ccccc12 [Cinacalcet hydrochloride] | 5.95 µM
11 | CC(C)CCCCCOC(=O)CCS [Isooctyl 3-mercaptopropionate] | > 90 µM
12 | C=CC(N)=O [Acrylamide] | > 90 µM
13 | CCCCCCCCCCCCCCCCCC(=O)OCC(O)CO (stereo not drawn) [Glycerol 1-monostearate] | > 50 µM
14 | O=C(O)c1ccccc1Nc1cc(Cl)ccc1C(=O)O [Lobenzarit sodium] | > 50 µM
15 | O=P(O)(O)C(Cl)(Cl)P(=O)(O)O [Clodronic acid, disodium salt] | > 50 µM
16 | O=[N+]([O-])c1nccn1CO[C@@H](CO)[C@H](O)CO [Doranidazole] | > 50 µM
17 | O=C1NC(=O)[C@@H]2CC=CC[C@H]12 [1,2,3,6-Tetrahydrophthalimide] | > 90 µM
18 | Cn1cnc([N+](=O)[O-])c1Sc1ncnc2nc[nH]c12 [Azathioprine] | > 50 µM
19 | O=C(O)CSCC(=O)NC1CCSC1=O (stereo not drawn) [Erdosteine] | > 50 µM
20 | CC(C)(COC(=O)c1ccccc1)COC(=O)c1ccccc1 [Neopentyl glycol dibenzoate] | > 90 µM
21 | CNNCc1ccc(C(=O)NC(C)C)cc1 [Procarbazine hydrochloride] | > 50 µM
22 | CN1CCc2cc(Cl)c(O)cc2[C@H]2c3ccccc3CC[C@@H]21 [ecopipam] | 17.4 µM
23 | N#CNC(=N)N [Cyanoguanidine] | > 90 µM

Row | SMILES | CC50 at 24 h
24 | CC[C@]1(O)CC[C@H]2[C@@H]3CCC4=CCCC[C@@H]4[C@H]3CC[C@@]21C [Ethylestrenol] | > 50 µM
25 | O=C1CCCCCCCCCCCCCCO1 [Pentadecan-15-olide] | > 90 µM
26 | S=C(SSSSSSC(=S)N1CCCCC1)N1CCCCC1 [Bis(1-piperidinylthioxomethyl)hexasulfide] | 0.0827 µM
27 | CCCc1nc(C(C)(C)O)c(C(=O)OCc2oc(=O)oc2C)n1Cc1ccc(-c2ccccc2-c2nnn[nH]2)cc1 [Olmesartan medoxomil] | > 50 µM
28 | CCCCCCCCCCCCCCOS(=O)(=O)O [Sodium myristyl sulfate] | 32 µM
29 | CC1(C)[C@H](C=C(Cl)Cl)[C@H]1C(=O)O[C@H](C#N)c1cccc(Oc2ccccc2)c1 [Cypermethrin] | > 50 µM
30 | CCCCNC(C)(C)[PH](=O)O [Butafosfan] | > 50 µM
31 | Clc1ccc(C(Cl)(Cl)Cl)cc1Cl [1,2-Dichloro-4-(trichloromethyl)benzene] | > 90 µM
32 | CNC(=O)Oc1cccc2c1OC(C)(C)C2 [Carbofuran] | > 90 µM
33 | ClCc1ccc(Cl)cc1Cl [2,4-Dichloro-1-(chloromethyl)benzene] | > 90 µM
34 | CCC(C)(O)CCCC(C)C (stereo not drawn) [3,7-Dimethyl-3-octanol] | > 90 µM
35 | CCCCCCCC[Si](OCC)(OCC)OCC [Triethoxyoctylsilane] | > 90 µM
36 | COc1c(O)cc2c(c1O)[C@@H]1O[C@H](CO)[C@@H](O)[C@H](O)[C@H]1OC2=O [Bergenin monohydrate] | > 20 µM
37 | CCCC(C)C1(CC)C(=O)NC(=S)NC1=O (stereo not drawn) [Thiopental sodium] | > 50 µM
38 | Oc1cc2ccccc2c2ccccc12 [9-Phenanthrol] | 6.81 µM
39 | CCCCCCCCCCCCS [1-Dodecanethiol] | > 90 µM
40 | CCCCC(CC)COC(=O)c1ccc(C(=O)OCC(CC)CCCC)c(C(=O)OCC(CC)CCCC)c1 (stereo not drawn) [Tris(2-ethylhexyl) trimellitate] | > 90 µM
41 | C[Si]1(C)O[Si](C)(C)O[Si](C)(C)O[Si](C)(C)O[Si](C)(C)O1 [Decamethylcyclopentasiloxane] | > 90 µM
42 | CC(C)(C)NCC(O)COc1cccc2c1CCC(=O)N2 (stereo not drawn) [Carteolol hydrochloride] | > 20 µM
43 | CC(C)OC(=O)C(C)(C)Oc1ccc(C(=O)c2ccc(Cl)cc2)cc1 [Fenofibrate] | 78.6 µM
44 | CCCO [1-Propanol] | > 90 µM
45 | Cc1ccc(NC(=O)N(C)C)cc1NC(=O)N(C)C [3,3'-(4-Methylbenzene-1,3-diyl)bis(1,1-dimethylurea)] | > 90 µM
46 | CCOC(=O)CC(O)(CC(=O)OCC)C(=O)OCC [Triethyl citrate] | > 90 µM

Row | SMILES | CC50 at 24 h
47 | CCCCCCCCCO [1-Nonanol] | > 90 µM
48 | c1ccc(CCCc2ccncc2)cc1 [4-(3-Phenylpropyl)pyridine] | > 90 µM
49 | CC1CS(=O)(=O)CCN1/N=C/c1ccc([N+](=O)[O-])o1 (stereo not drawn) [Nifurtimox] | 8.46 µM
50 | ClCCCl [1,2-Dichloroethane] | > 90 µM
51 | O=C(CCS)OCC(COC(=O)CCS)(COC(=O)CCS)COC(=O)CCS [3-[(3-Sulfanylpropanoyl)oxy]-2,2-bis{[(3-sulfanylpropanoyl)oxy]methyl}propyl 3-sulfanylpropanoate] | > 90 µM
52 | CCOC(=O)NNc1ccc(N(CC)CC(C)O)nn1 (stereo not drawn) [Cadralazine] | > 50 µM
53 | CCC(=O)c1ccc(O)cc1 [Paroxypropione] | > 50 µM
54 | O=c1ccc2cc(O[C@@H]3O[C@H](CO)[C@@H](O)[C@H](O)[C@H]3O)c(O)cc2o1 [Esculin] | > 20 µM
55 | CCCCCBr [1-Bromopentane] | > 100 µM
56 | CCCC(=O)OC(=O)CCC [Butanoic anhydride] | > 90 µM
57 | O=C1C=CC(=O)N1c1ccccc1 [1-Phenyl-1H-pyrrole-2,5-dione] | 5.48 µM
58 | NC[C@H]1O[C@H](O[C@H]2[C@H](O[C@@H]3O[C@H](CO)[C@@H](O)[C@H]3O)[C@@H](O)[C@H](N)C[C@@H]2N)[C@H](N)[C@@H](O)[C@@H]1O [Ribostamycin sulfate] | > 20 µM
59 | C=CC(=O)OCC(C)C [Isobutyl acrylate] | > 90 µM
60 | N[C@@H]1CON=C1O [Cycloserine] | > 50 µM
61 | COC(=O)c1ccccc1C(=O)OC [Dimethyl phthalate] | > 50 µM
62 | CC(=O)Oc1ccc(C(c2ccc(OC(C)=O)cc2)c2ccccn2)cc1 [Bisacodyl] | > 90 µM
63 | CCCCC(C)C(=O)O (stereo not drawn) [2-Methylhexanoic acid] | > 90 µM
64 | C1CCC2=NCCCN2CC1 [1,8-Diazabicyclo[5.4.0]undec-7-ene] | > 90 µM
65 | O=C1CCCC=CCCCCCCCCCC1 [5-Cyclohexadecen-1-one] | 74.1 µM
66 | NCCCC(=O)O [4-Aminobutanoic acid] | > 50 µM
67 | O=C(Oc1ccccc1)Oc1ccccc1 [Diphenylcarbonate] | > 90 µM
68 | COc1c(N2C[C@@H]3CCCN[C@@H]3C2)c(F)cc2c(=O)c(C(=O)O)cn(C3CC3)c12 [Moxifloxacin hydrochloride] | > 50 µM
69 | CCOC(=O)[C@H](CS)NCCN[C@@H](CS)C(=O)OCC [Bicisate dihydrochloride] | > 50 µM

Same assay, conditions: rat, gh3-tre-luc cells, AC50 (uM) modified / 1000, Tox21_110001=Tox21_112370; viability, 1 nM T3 present, 24 h

Row | SMILES | CC50 at 24 h
70 | OC[C@@H](O)[C@H]1O[C@@H]2O[C@@H](C(Cl)(Cl)Cl)O[C@@H]2[C@H]1O [beta-Chloralose] | > 50 µM

Same assay, conditions: rat, gh3-tre-luc cells, AC50 (uM) modified / 1000, Tox21_110001=Tox21_113359; viability, 1 nM T3 present, 24 h

Row | SMILES | CC50 at 24 h
71 | CCOP(=S)(OCC)SCSc1ccc(Cl)cc1 [Carbophenothion] | > 50 µM

Same assay, conditions: rat, gh3-tre-luc cells, AC50 (uM) modified / 1000, Tox21_110001=Tox21_200790; viability, 1 nM T3 present, 24 h

Row | SMILES | CC50 at 24 h
72 | ClCBr [Bromochloromethane] | > 100 µM

Same assay, conditions: rat, gh3-tre-luc cells, AC50 (uM) modified / 1000, Tox21_110001=Tox21_201619; viability, 1 nM T3 present, 24 h

Row | SMILES | CC50 at 24 h
73 | CCNc1nc(Cl)nc(NC(C)(C)C#N)n1 [Cyanazine] | > 90 µM

Same assay, conditions: rat, gh3-tre-luc cells, AC50 (uM) modified / 1000, Tox21_110001=Tox21_202023; viability, 1 nM T3 present, 24 h

Row | SMILES | CC50 at 24 h
74 | ClCC(Cl)CCl [1,2,3-Trichloropropane] | > 90 µM

Same assay, conditions: rat, gh3-tre-luc cells, AC50 (uM) modified / 1000, Tox21_110001=Tox21_202091; viability, 1 nM T3 present, 24 h

Row | SMILES | CC50 at 24 h
75 | Nc1ccc2ccccc2c1 [2-Naphthylamine] | > 90 µM

Same assay, conditions: rat, gh3-tre-luc cells, AC50 (uM) modified / 1000, Tox21_110001=Tox21_202365; viability, 1 nM T3 present, 24 h

Row | SMILES | CC50 at 24 h
76 | O=S1OCC2C(CO1)C1(Cl)C(Cl)=C(Cl)C2(Cl)C1(Cl)Cl (stereo not drawn) [Endosulfan] | 55.9 µM

Same assay, conditions: rat, gh3-tre-luc cells, AC50 (uM) modified / 1000, Tox21_110001=Tox21_202592; viability, 1 nM T3 present, 24 h

Row | SMILES | CC50 at 24 h
77 | Cc1ccc2cc3c(ccc4ccccc43)c3c2c1CC3 [3-Methylcholanthrene] | > 50 µM

Same assay, conditions: rat, gh3-tre-luc cells, AC50 (uM) modified / 1000, Tox21_110001=Tox21_300657; viability, 1 nM T3 present, 24 h

Row | SMILES | CC50 at 24 h
78 | O=S1OCC2C(CO1)C1(Cl)C(Cl)=C(Cl)C2(Cl)C1(Cl)Cl (stereo not drawn) [Endosulfan] | 37.5 µM

Same assay, conditions: rat, gh3-tre-luc cells, AC50 (uM) modified / 1000, Tox21_110001=Tox21_300782; viability, 1 nM T3 present, 24 h

Row | SMILES | CC50 at 24 h
79 | O=S1(=O)OCC2C(CO1)C1(Cl)C(Cl)=C(Cl)C2(Cl)C1(Cl)Cl (stereo not drawn) [Endosulfan sulfate] | 56.1 µM

Same assay, conditions: rat, gh3-tre-luc cells, AC50 (uM) modified / 1000, Tox21_110001=Tox21_301426; viability, 1 nM T3 present, 24 h

Row | SMILES | CC50 at 24 h
80 | CCOP(=S)(OCC)SCSc1ccc(Cl)cc1 [Carbophenothion] | > 90 µM

Same assay, conditions: rat, gh3-tre-luc cells, AC50 (uM) modified / 1000, Tox21_110001=Tox21_400081; viability, 1 nM T3 present, 24 h

Row | SMILES | CC50 at 24 h
81 | CCOP(=O)(O)N(c1ccc(SC)c(C)c1)C(C)C [Fenamiphos] | > 90 µM
